In article PMC7529580, “Modified heptapeptide from tau binds both tubulin and microtubules” (Thoracic Cancer, 2020):
Entries after “also recorded” stand apart in the source; their conditions may differ. Like-named read-outs stand apart in the source and are kept apart here. Non-standard residues stand in square brackets, D forms with d. No end group written: not given here. *: point of attachment. FITC = O=C1OC2(c3ccc(O)cc3Oc3cc(O)ccc32)c2ccc(NC(=S)*)cc21; Ahx = NCCCCCC(=O)O

Legend:
[1] = test system: microtubules in living cells; conditions: cited from earlier work; for labeling of microtubules in living cells (in words): microtubule‐targeting agents
Text: The property of microtubules is regulated by a number of microtubule‐binding proteins, ^8 , ^9 , ^10 , ^11 , ^12 , ^13 of which tau is well‐characterized because of its abundance, particularly in brain tissues. ^14 , ^15 , ^16 The N‐terminus of tau is a projection domain, followed by a proline‐rich region and a C‐terminal microtubule‐assembly domain. ^17 The microtubule‐assembly domain, which contains four imperfect sequence repeats, is responsible for the binding of tau to microtubules. […] In this study, we tested another tau‐derived peptide for its ability to monitor microtubules.

[2] = test system: microtubules; design: method as in 2 sources, ref 26 = [26]; PMID 9190213; doi:10.1091/mbc.8.2.353; 26 Goode BL , Denis PE , Panda D et al Functional interactions between the proline‐rich and repeat regions of tau enhance microtubule binding and assembly . Mol Biol Cell 1997; 8 : 353 – 65 . 9190213 ||| ref 27 = [27]; PMID 19186939; doi:10.1021/bm801224q; 27 Cao B , Mao C . Identification of microtubule‐binding domains on microtubule‐associated proteins by major coat phage display technique . Biomacromolecules 2009; 10 : 555 – 64 . 19186939 10.1021/bm; conditions: cited from earlier work
[3] = test system: HeLa cells; experiment: Living cell assay: entry of peptide into cells; type: cell-based; conditions: 15 μM peptide, 30 minutes, Hoechst 33258, fluorescence microscope
Description: (§1) HeLa cells were cultured in Dulbecco's modified Eagle's medium supplemented with 10% fetal bovine serum and maintained at 37°C in a humidified 5% CO2 environment. The peptide was added into the Hela cells, and incubated for 30 minutes. The nuclei were stained with Hoechst 33258 (Beyotime). Cells were imaged with a fluorescence microscope (Leica, Germany).  Figure 4 Examination of the peptide in tracing microtubules in living cells. HeLa cells were treated with 15 μM of the peptide or control peptide, together with Hoechst 33258, and 30 minutes later, the cells were imaged with a fluorescence microscope. Scale bar: 5 μm.

[4] = test system: microtubules in HeLa cells; experiment: Living cell assay: tracing of microtubules; type: cell-based; conditions: 15 μM peptide, 30 minutes, Hoechst 33258, fluorescence microscope
Description: as §1

[5] = test system: tubulin dimers; experiment: Microscale thermophoresis affinity determination; type: binding; conditions: 1 μM peptide, series dilution of tubulin
Description: All microscale thermophoresis measurements were performed using Monolith NTTM hydrophobic capillaries and a Monolith NT.115 instrument (NanoTemper) according to the manufacturer's instructions. The peptide was prepared with varying concentrations for pretest to ensure final proper concentration. The fluorescence intensity value should be more than 200. A series of dilution of the tubulin dimers was then added into the capillaries. The affinity of the peptide to tubulin dimers was examined using the Monolith NT.115 instrument.
(§2) Tubulin from HeLa cells was purified using a TOG‐based affinity column. ^20 Briefly, cells were resuspended in an equal volume of BRB80 buffer containing 3 μL of benzonase and 1 mM DTT. Cells were lysed on ice and centrifuged at 40 000 rpm for 30 minutes at 4°C. The supernatant was filtered through a 0.45 μm Milliex‐HV polyvinylidene fluoride membrane, and then loaded into a TOG column preequilibrated with BRB80 buffer. The tubulin was eluted with BRB80 buffer, and the crude extract was further purified through the cycle of polymerization and depolymerization as previously described. ^22
Figure 2 Affinity determination of the peptide to tubulin. 1 μM of the peptide and a series dilution of tubulin were added into the capillary tube, and the fluorescence intensity was then determined by a Monolith NT.115 instrument.

[6] = test system: polymerized microtubules; experiment: Labeling of polymerized microtubules in solution (fluorescence microscopy); type: binding; conditions: 1 μM peptide added to polymerized rhodamine‐labeled microtubules, five minutes incubation, fluorescence microscope
Description: as §2
Rhodamine‐labeled tubulin (5%) was mixed into tubulin purified from HeLa cells in the PEMG buffer (100 mM PIPES, 1 mM EGTA, 1 mM MgSO4, 1 mM GTP, pH 6.8). Next, the mixture was placed on ice for five minutes and then incubated at 37°C for 30 minutes. The polymerized reaction was terminated by adding 400 μL of PEMG buffer. […] The pellet was resuspended with 300 μL of the PEMG buffer supplemented with 20 μM paclitaxel and then added into a slide chamber for imaging under a fluorescence microscope.
Figure 3 The peptide was able to label the microtubules in solution. (a) The tubulin was purified from HeLa cells through cycle process, and the purity was determined by SDS‐PAGE. […] After five minutes incubation, the microtubule was imaged under a fluorescence microscope. […]

[7] = target: fluorescent tau-derived peptide (FITC-Ahx-(rR)3R2-GGG-KKVAVVR); experiment: MST; 1 μM of the fluorescent peptide constant, a series dilution of tubulin dimers; Monolith NT.115, hydrophobic capillaries

CC(=O)O[C@H]1C(=O)[C@@]2(C)[C@H]([C@H](OC(=O)c3ccccc3)[C@]3(O)C[C@H](OC(=O)[C@H](O)[C@@H](NC(=O)c4ccccc4)c4ccccc4)C(C)=C1C3(C)C)[C@]1(OC(C)=O)CO[C@@H]1C[C@@H]2O [taxol]
labeling of microtubules in living cells (in words) [1]: able to label microtubules in living cells

KKVAVVR
microtubule binding (in words) ([2]; small sequence within the proline‐rich region of tau): critical for efficient microtubule binding

KKVAVVRTPP
microtubule binding (in words) ([2]; peptide with VxxVxxP motif): able to bind microtubules

tau‐derived peptide: FITC dye, cell‐penetrating peptide (rR)3R2, spacer (GGG), microtubule recognition unit (KKVAVVR), with aminohexanoic (Ahx) acid ({FITC-Ahx}-[dR]R[dR]R[dR]RRRGGGKKVAVVR)
entry into living cells (in words) [3]: delivered successfully into HeLa cells | tracing of microtubule filaments in living cells (in words) [4]: no clear microtubule filaments were observed | binding to tubulin dimers (in words) [5]: specifically bound to tubulin | binding to tubulin dimers (in words) ([5]; listed as the peptide): bound tubulin dimers in a dose‐dependent manner; also recorded: relatively low affinity | disassociation constant (Kd) of the peptide with tubulin ([5]; Monolith NT.115, hydrophobic capillaries): 4.68 ± 0.08 µM | labeling of microtubules in solution / binding to microtubules (in words) ([6]; listed as modified heptapeptide from tau): binds microtubules specifically and noncovalently | labeling of microtubules in solution / binding to microtubules (in words) ([6]; listed as the peptide): able to successfully label the microtubules in solution

COc1cc2c(c(OC)c1OC)-c1ccc(OC)c(=O)cc1[C@@H](NC(C)=O)CC2 [colchicine]
labeling of microtubules in living cells (in words) [1]: able to label microtubules in living cells

N=C(N)c1ccc(-c2cc3ccc(C(=N)N)cc3[nH]2)cc1 [4',6‐diamidino‐2‐phenylindole (DAPI), 4',6‐diamidino‐2‐phenylindole]
tracing microtubules in living cells (in words) ([1]; due to the lack of specificity and the complexity of cellular contents): unable to trace microtubules in living cells

tubulin dimers purified from HeLa cells (from UniProt P68363 1-451; P07437 1-444) (complex)
Kd [7]: 4.68 µM
